From patent US10188108B2, “Fused bicyclic heterocycle derivatives as pesticides” (BAYER CROPSCIENCE AKTIENGESELLSCHAFT, priority 2015, dated 2019)
Read-outs that look alike come from different tables or passages of the source.

How the values were obtained:
[1] = log P by HPLC on a reversed-phase column (C 18), EEC Directive 79/831 Annex V.A8; format: physicochemical; conditions: for LOGP_HCOOH: pH 2.7, 0.1% aqueous formic acid/acetonitrile; for LOGP_HCOOH / LOGP_NEUTRAL: 55° C.; for LOGP_NEUTRAL: pH 7.8, 0.001 molar aqueous ammonium hydrogencarbonate/acetonitrile; for chromatographic logP: reversed-phase HPLC column (C 18), value in preparation example text
Description: The log P values are measured according to EEC Directive 79/831 Annex V.A8 by HPLC (high-performance liquid chromatography) on a reversed-phase column (C 18). Temperature: 55° C.
The LC-MS determination in the acidic range is effected at pH 2.7 using 0.1% aqueous formic acid and acetonitrile (contains 0.1% formic acid) as eluents; linear gradient from 10% acetonitrile to 95% acetonitrile. Called log P (HCOOH) in the table.
LC-MS determination in the neutral range is effected at pH 7.8 with 0.001 molar aqueous ammonium hydrogencarbonate solution and acetonitrile as eluents; linear gradient from 10% acetonitrile to 95% acetonitrile. Called log P (neutral) in the table.
Calibration is carried out using unbranched alkan-2-ones (having 3 to 16 carbon atoms) with known log P values (log P values determined on the basis of the retention times by linear interpolation between two successive alkanones).

Spodoptera frugiperda = Spodoptera frugiperda - spray test; format: in vivo; conditions: 500 g/ha, after 7 days, caterpillars on maize leaf discs
Description: (§1) • Solvent: 78.0 parts by weight of acetone • 1.5 parts by weight of dimethylformamide • Emulsifier: alkylaryl polyglycol ether
(§2) To produce a suitable preparation of active compound, 1 part by weight of active compound is dissolved using the stated parts by weight of solvent and made up with water containing an emulsifier concentration of 1000 ppm until the desired concentration is attained. To produce further test concentrations, the preparation is diluted with emulsifier-containing water.
Leaf discs of maize (Zea mays) are sprayed with an active compound preparation of the desired concentration and, after drying, populated with caterpillars of the armyworm (Spodoptera frugiperda).
After 7 days, the efficacy in % is determined. 100% means that all the caterpillars have been killed; 0% means that no caterpillars have been killed.

Phaedon cochleariae = Phaedon cochleariae - spray test; format: in vivo; conditions: 500 g/ha, after 7 days, larvae on Chinese cabbage leaf discs
Description: as §1, §2
After 7 days, the efficacy in % is determined. 100% means that all the beetle larvae have been killed; 0% means that no beetle larvae have been killed.

[2] = acidic range, pH 2.7, read-out: log P (acidic)
[3] = neutral range, pH 7.8, read-out: log P (neutral)

Row | SMILES | LOGP_HCOOH ([1]; acidic range) | LOGP_NEUTRAL ([1]; neutral range) | efficacy (Phaedon cochleariae) | further results
1 | CCS(=O)(=O)c1c(-c2nc3cc(C(F)(F)F)cnc3s2)nc2ccccn12 [Example I-51] | 3.21 | 3.20 | – | –
2 | CCSc1c(-c2nc3cc(C(F)(F)F)cnc3o2)nc2cc(C(F)(F)F)ccn12 [Example I-50] | 4.14 | – | 100% | efficacy (Spodoptera frugiperda): 100%
3 | CCS(=O)(=O)c1c(-c2nc3cc(C(F)(F)F)ccc3o2)nc2ccccn12 [Example I-12] | 2.92 | 2.94 | 83% | efficacy (Spodoptera frugiperda): 83%
4 | O=C(O)c1nc2cc(C(F)(F)F)ccn2c1Cl [III-1, 3-Chloro-7-(trifluoromethyl)imidazo[1,2-a]pyridine-2-carboxylic acid] | – | – | – | chromatographic logP [1, 2]: 1.5
5 | CCS(=O)(=O)c1c(C(=O)O)nc2ccccn12 [XXIII-1, 3-(Ethylsulphonyl)imidazo[1,2-a]pyridine-2-carboxylic acid] | – | – | – | chromatographic logP [1, 2]: 0.54
6 | CCS(=O)(=O)c1c(-c2nc3cc(C(F)(F)F)ncc3n2C)nc2c(C(F)(F)F)cccn12 [Example I-24] | 2.92 | 2.90 | 100% | efficacy (Spodoptera frugiperda): 100%
7 | CCSc1c(C(=O)Nc2cc(C(F)(F)F)cnc2Cl)nc2ccccn12 [XXVI-1, N-[2-Chloro-5-(trifluoromethyl)pyridin-3-yl]-3-(ethylsulphanyl)imidazo[1,2-a]pyridine-2-carboxamide] | – | – | – | chromatographic logP [1, 3]: 4.39
8 | CCOC(=O)c1nc2ccccn2c1SCC [XXII-1, Ethyl 3-(ethylsulphanyl)imidazo[1,2-a]pyridine-2-carboxylate] | – | – | – | chromatographic logP [1, 3]: 2.05
9 | CCSc1c(-c2nc3cc(C(F)(F)F)ccc3n2C)nc2cccc(C(F)(F)F)n12 [Example I-27] | 4.09 | – | – | –
10 | CCSc1c(-c2nc3cc(C(F)(F)F)cnc3o2)nc2ccc(C(F)(F)F)cn12 [Example I-58] | 4.14 | – | – | –
11 | Cn1c(-c2nc3ccccn3c2Cl)nc2cc(C(F)(F)F)ncc21 [Example V-1, 2-(3-Chloroimidazo[1,2-a]pyridin-2-yl)-3-methyl-6-(trifluoromethyl)imidazo[4,5-c]pyridine] | – | – | – | chromatographic logP [1, 3]: 2.38
12 | CCSc1cccc2nc(-c3nc4cc(C(F)(F)F)ccc4n3C)c(SCC)n12 [Example I-31] | 3.95 | – | – | –

Continued, in another order:

Row | LOGP_HCOOH ([1]; acidic range) | LOGP_NEUTRAL ([1]; neutral range) | SMILES | efficacy (Phaedon cochleariae) | further results
13 | 3.35 | – | CCSc1c(-c2nc3cc(C(F)(F)F)ccc3n2C)nc2cccc(C)n12 [Example I-26] | 83% | –
14 | 3.41 | – | CCSc1c(-c2nc3cc(C(F)(F)F)ccc3n2C)nc2cc(C)ccn12 [Example I-37] | – | –
15 | 3.80 | 3.80 | CCSc1c(-c2nc3cc(C(F)(F)F)ncc3n2C)nc2cc(C(F)(F)F)ccn12 [Example I-16] | 100% | efficacy (Spodoptera frugiperda): 100%
16 | 3.59 | – | CCSc1c(-c2nc3cc(C(F)(F)F)ncc3n2C)nc2ccc(Cl)cn12 [Example I-3] | – | efficacy (Spodoptera frugiperda): 100%
17 | 3.50 | – | CCSc1c(-c2nc3cc(C(F)(F)F)ncc3n2C)nc2cccc(C(F)(F)F)n12 [Example I-20] | – | –
18 | 3.25 | 3.41 | CCSc1c(-c2nc3cc(C(F)(F)F)ccc3n2C)nc2ccccn12 [Example I-9] | 100% | –
19 | 3.20 | 3.22 | CCSc1c(-c2nc3cc(C(F)(F)F)ncc3n2C)nc2ccc(C)cn12 [Example I-45] | – | –
20 | 3.99 | 3.93 | CCSc1cccn2c(SCC)c(-c3nc4cc(C(F)(F)F)ncc4n3C)nc12 [Example I-15] | – | –
